Experiments:
Assay type in all cases: cell-based
[1] = tested on: Bacillus subtilis JHCC 553331; assay: Antibacterial activity assay (microspectrophotometry)
Description: Antibacterial activity was measured microspectrophotometrically as follows. A bacterial suspension was prepared by inoculating soft nutrient agarose (tryptone, 10 g/l; Seaplaque agarose (FMC), 5 g/l). Aliquots (80 μl) of the bacterial suspension (10^5 colony forming units per ml) were added to filter-sterilized samples (20 μl) in flat-bottom 96-well microplates. The absorbance at 595 nm of the culture was measured with the aid of a microplate reader after 30 minutes and 24 hours of incubation at 28° C. Percent growth inhibition was calculated as described above for the antifungal activity assay.
The antibacterial activities of Ah-AMP1 and Hs-AFP1 were measured on four gram positive bacteria (Bacillus subtilis JHCC 553331; Micrococcus luteus ATCC 93411; Staphylococcus aureus ATCC 25923; Streptococcus feacolis ATCC 29212) and two gram negative bacteria (Eschericia coli HB101 and Proteus vulgaris JHCC 558711).

Penicillum digitatum = assay: Antifungal activity assay (microspectrophotometry); conditions: host Citrus fruit, inoculum Sp, period of incubation in AFP-solution 48
Description: (§1) Antifungal activity was measured by microspectrophotometry as previously described (Broekaert, 1990, FEMS Microbiol Lett, 69:55-60). Routinely, tests were performed with 20 μl of a (filter-sterilized) test solution and 80 μl of a suspension of fungal spores (2×10^4 spores/ml) in half strength potato dextrose broth (1/2 PDB). […] Control microcultures contained 20 μl of sterile distilled water and 80 μl of the fungal spore suspension.
(§2) Unless otherwise stated the test organism was Fusarium culmorum (strain IMI 180420) and incubation was done at 25° C. for 48 hours. Percent growth inhibition is defined as 100 times the ratio of the corrected absorbance of the control microculture minus the corrected absorbance of the test microculture over the corrected absorbance at 595 nm of the control microculture. The corrected absorbance values equal the absorbance at 595 nm of the culture measured after 48 hours minus the absorbance at 595 nm measured after 30 min.
(§3) The antifungal potency of the purified proteins was assessed on different plant pathogenic fungi, using the assay described in Example 1. Growth of fungi, collection and harvest of fungal spores and preparation of mycelial fragments were done as previously described (Broekaert et al, 1990, FEMS Microbiol Lett, 69:55-60). Serial dilutions of the antifungal proteins were applied to the fungi, either using growth medium SMF- (the synthetic growth medium of Example 1), medium SMF+ (medium SMF- supplemented with 1 mM CaCl2 and 50 mM KCl), growth medium 1/2 PDB- (half strength potato dextrose broth as in Example 1) or growth medium 1/2 PDB+ (medium 1/2 PDB- supplemented with 1 mM CaCl2 and 50 mM Kcl). The percent growth inhibition was measured by microspectrophotometry. The concentration required for 50% growth inhibition after 48 h of incubation (IC50 value) was calculated from the dose-reponse curves.
(§4) The abbreviations used are: IC50 =concentration required for 50% growth inhibition determined as described in Example 1; ND=not determined; Sp=spores; PrSp=spores pregerminated in the medium for 24 hours; MF=mycelial fragments preincubated for 48 hours in the medium prior to addition of the proteins; BHR=broad host range; SF=saprophytic fungus; SMF-=synthetic growth medium as described in Example 1; SMF+=SMF- supplemented with 1 mM CaCl2 and 50 mM KCl; 1/2PDB-=half strength potato dextrose broth as described in Example 1; 1/2PDB+=1/2PDB- supplemented with 1 mM CaCl2 and 50 mM KCl.

Trichoderma viride = assay: Antifungal activity assay (microspectrophotometry); conditions: strain K1127, SF, inoculum Sp, period of incubation in AFP-solution 48
Description: as §1, §2, §3, §4

Septoria tritici = assay: Antifungal activity assay (microspectrophotometry); conditions: strain K1097, host Triticum, inoculum Sp, period of incubation in AFP-solution 48
Description: as §1, §2, §3, §4

[2] = tested on: Cladosporium sphaerospermum; assay: Antifungal activity assay (microspectrophotometry); conditions: strain K0791, SF, inoculum Sp, period of incubation in AFP-solution 48
Description: as §1, §2, §3, §4

Verticillium albo-atrum = assay: Antifungal activity assay (microspectrophotometry); conditions: strain K0937, host Lycoperisicum, inoculum Sp, period of incubation in AFP-solution 48
Description: as §1, §2, §3, §4

Acremonium hyalinum = assay: Antifungal activity assay (microspectrophotometry); conditions: strain FAJ98, host Musa, inoculum Sp, period of incubation in AFP-solution 64
Description: as §1, §2, §3, §4

Botrytis cinerea = assay: Antifungal activity assay (microspectrophotometry); conditions: strain K1147, host BHR, inoculum Sp, period of incubation in AFP-solution 48
Description: as §1, §2, §3, §4

Glomerella cingulata = assay: Antifungal activity assay (microspectrophotometry); conditions: strain FAJ76, host Musa, inoculum Sp, period of incubation in AFP-solution 64
Description: as §1, §2, §3, §4

Ascochyta pisi = assay: Antifungal activity assay (microspectrophotometry); conditions: strain MUCL30164, host Pisum, inoculum Sp, period of incubation in AFP-solution 48
Description: as §1, §2, §3, §4

Fusarium culmorum = assay: Antifungal activity assay (microspectrophotometry); conditions: for IC50: host Cereals, inoculum Sp, period of incubation in AFP-solution 48
Description: as §1, §2, §3, §4

Mycoshpaerella fijiensis = assay: Antifungal activity assay (microspectrophotometry); conditions: strain FUL549; host Musa; medium 1/2PDB+; inoculum MF; period of incubation in AFP-solution 96
Description: as §1, §2, §3, §4

Curvularia affinis = assay: Antifungal activity assay (microspectrophotometry); conditions: strain FAJ97, host Musa, inoculum Sp, period of incubation in AFP-solution 40
Description: as §1, §2, §3, §4

Alternaria brassicola = assay: Antifungal activity assay (microspectrophotometry); conditions: strain MUCL20297, host Brassica, inoculum Sp, period of incubation in AFP-solution 48
Description: as §1, §2, §3, §4

Gloeosporium musarum = assay: Antifungal activity assay (microspectrophotometry); conditions: for IC50: inoculum Sp, period of incubation in AFP-solution 40
Description: as §1, §2, §3, §4

fungi = assay: Morphological effect on fungal hyphae (fungi in general)

Substance | IC50 (Penicillum digitatum; strain K0679, medium 1/2PDB-) [µg/mL] | IC50 (Penicillum digitatum; strain K0879, medium 1/2PDB+) [µg/mL] | IC50 (Trichoderma viride; medium 1/2PDB+) [µg/mL] | IC50 (Trichoderma viride; medium 1/2PDB-) [µg/mL] | IC50 (Septoria tritici; medium 1/2PDB+) [µg/mL] | IC50 (Septoria tritici; medium 1/2PDB-) [µg/mL] | IC50 ([2]; medium 1/2PDB+) [µg/mL] | IC50 ([2]; medium 1/2PDB-) [µg/mL] | IC50 (Verticillium albo-atrum; medium 1/2PDB+) [µg/mL] | IC50 (Verticillium albo-atrum; medium 1/2PDB-) [µg/mL] | IC50 (Botrytis cinerea; medium 1/2PDB+) [µg/mL] | IC50 (Botrytis cinerea; medium 1/2PDB-) [µg/mL] | IC50 (Ascochyta pisi; medium SMF+) [µg/mL] | IC50 (Ascochyta pisi; medium SMF-) [µg/mL] | IC50 (Fusarium culmorum; strain IMI180420, medium SMF+) [µg/mL] | IC50 (Fusarium culmorum; strain IMI180420, medium SMF-) [µg/mL] | IC50 (Fusarium culmorum; strain K0311, medium 1/2PDB+) [µg/mL] | IC50 (Fusarium culmorum; strain K0311, medium 1/2PDB-) [µg/mL] | IC50 (Mycoshpaerella fijiensis) [µg/mL] | hyperbranching of fungi (fungi) | other results
Ah-AMP1: Aesculus hippocastanum antimicrobial protein 1; 5 kDa polypeptide purified from seeds, 50 amino acids, SEQ ID NO 2 (LCNERPSQTWSGNCGNTAHCDKQCQDWEKASHGACHKRENHWKCFCYFNC) | 6 | 25 | > 100 | > 100 | 1.5 | 0.5 | 12 | 0.5 | > 100 | 6 | > 100 | 25 | 15 | 0.8 | 25 | 1.5 | > 100 | 12 | 0.75 | do not | inhibition of bacterial growth ([1]; at 100 μg/ml): inhibited growth; IC50 (Acremonium hyalinum; medium SMF+): 12.5 µg/mL; IC50 (Acremonium hyalinum; medium SMF-): < 0.75 µg/mL; IC50 (Glomerella cingulata; medium SMF+): 12.5 µg/mL; IC50 (Glomerella cingulata; medium SMF-): < 0.75 µg/mL; IC50 (Curvularia affinis; medium SMF+): 25 µg/mL; IC50 (Curvularia affinis; medium SMF-): 0.75 µg/mL; IC50 (Alternaria brassicola; medium SMF+): 12 µg/mL; IC50 (Alternaria brassicola; medium SMF-): 1.5 µg/mL; reduction of activity in medium SMF- versus SMF+ (Gloeosporium musarum; on Gloeosporium musarum): more than ten-fold; IC50 (Gloeosporium musarum; strain FAJ86, host Muaa, medium SMF+): 12.5 µg/mL; IC50 (Gloeosporium musarum; strain FAJB6, host Musa, medium SMF-): < 0.75 µg/mL; interference with fungal growth processes (hyphal length) (fungi): reduction in hyphal length
Hs-AFP1: Heuchera sanquinea antifungal protein 1; 5 kDa polypeptide purified from seeds, 54 amino acids, SEQ ID NO 1 (DGVKLCDVPSGTWSGHCGSSSKCSQQCKDREHFAYGGACHYQFPSVKCFCKRQC) | 1 | 3 | > 100 | 15 | 3 | 0.5 | 3 | 1 | 30 | 12 | 25 | 6 | > 5 | 1.5 | 1 | 0.5 | 3 | 1 | 12.5 | cause hyperbranching | inhibition of bacterial growth ([1]; tested at 200 μg/ml): did not inhibit the growth; antifungal activity on Fusarium culmorum (in words) (Fusarium culmorum; in 1/2PDB+): highly active; interference with fungal growth processes (hyphal length) (fungi): reduction in hyphal length

Reference: US5750504A, “Antimicrobial proteins” (Zeneca Agrochemicals, priority 1996, dated 1998)
